The values that follow come from patent US9044483B2, “Cell death inhibition by macrophage migration inhibitory factor and a binding substance thereto” (Takeda Pharmaceuticals Company Limited, priority 2006, dated 2015).

One assay has as its target T1, rat MIF (Rattus norvegicus, UniProt P30904, G111N).
T1 construct: made in house; host or cells: Escherichia coli BL21 (DE3)
Nature of the assay: Binding to rat MIF by surface plasmon resonance (BIACORE 3000), compound immobilized on sensor chip CM5. The settings on record: 1 μg/ml rat MIF in PBS with 0.005% Tween 20, FIG. 1, FIG. 4. On the procedure:
The binding of rat MIF obtained in REFERENCE EXAMPLE 2 to Compound A (cf., EXAMPLE 107 of WO 03/020719; see the formula below) was analyzed by BIACORE 3000 (manufactured by Biacore Co., Ltd.).
After Compound A was immobilized onto a sensor chip CM5 (manufactured by Biacore Co., Ltd.), phosphate buffered saline containing 0.005% Tween 20 containing 1 μg/ml of rat MIF was passed over the chip to assess changes in surface plasmon resonance signal as the binding of the compound to rat MIF.
The binding of rat MIF obtained in REFERENCE EXAMPLE 2 to Compound C (see the formula below) was analyzed by BIACORE 3000 (manufactured by Biacore Co., Ltd.). In a manner similar to EXPERIMENT 1(1), Compound C was immobilized onto a sensor chip CM5 (manufactured by Biacore Co., Ltd.) and then, phosphate buffered saline containing 0.005% Tween 20 containing 1 μg/ml of rat MIF was passed over the chip to assess changes in surface plasmon resonance signal as the binding of the compound to rat MIF.
In general terms: In SPR one partner is held on a chip, and binding of the other changes the refractive index at the surface.

The target of the next assay is T2, hMIF-P1S (Homo sapiens, UniProt P14174).
T2 construct: the region encoding MIF was amplified from human complementary DNA (cDNA) library; made in house; host or cells: Escherichia coli BL21 (DE3)
T2 sequence (P14174 with tags, fused parts or gaps): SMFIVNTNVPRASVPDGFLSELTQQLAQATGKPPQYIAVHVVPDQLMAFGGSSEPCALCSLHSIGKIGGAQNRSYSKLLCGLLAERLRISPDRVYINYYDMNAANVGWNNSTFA
Nature of the assay: Binding of modified human MIF (hMIF-P1S) to immobilized Compound A by BIACORE 3000. The settings on record: 10 μg/ml hMIF or hMIF-P1S in HBS-EP buffer, FIG. 2. On the procedure:
The binding of human MIF (hMIF) and modified human MIF (hMIF-P1S) obtained in REFERENCE EXAMPLE 1 to Compound A was analyzed by BIACORE 3000 (manufactured by Biacore Co., Ltd.).
(§1) After Compound A was immobilized onto a sensor chip CM5 (manufactured by Biacore Co., Ltd.), HBS-EP buffer (manufactured by Biacore Co., Ltd.) containing 10 μg/ml of hMIF or hMIF-P1S was passed over the chip to assess changes in surface plasmon resonance signal as the binding of the compound to human MIF.

For a further assay, the target named is T3, His-hMIF (Homo sapiens, UniProt P14174).
T3 construct: the region encoding MIF was amplified from human complementary DNA (cDNA) library; made in house; host or cells: Escherichia coli BL21 (DE3)
T3 sequence (P14174 with tags, fused parts or gaps): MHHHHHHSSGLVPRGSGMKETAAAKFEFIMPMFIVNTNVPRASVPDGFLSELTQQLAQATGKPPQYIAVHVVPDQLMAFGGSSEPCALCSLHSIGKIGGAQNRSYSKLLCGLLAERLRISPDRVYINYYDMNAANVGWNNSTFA
The experiment in a line: Binding of His-hMIF (peptide added to N terminus) to immobilized Compound A by BIACORE 3000. The settings on record: FIG. 5. On the procedure:
as §1
Similarly, the binding of Compound A to His-hMIF added with the peptide to its N terminus, obtained in REFERENCE EXAMPLE 3, was analyzed.

For `NCCCCCCNC(=O)c1cccc(-c2nc(=O)c3ccccc3s2)n1` [Compound A, N-(6-aminohexyl)-6-(4-oxo-4H-1,3-benzothiazin-2-yl)-2-pyridinecarboxamide], on rat MIF, the “binding of the compound to rat MIF (changes in surface plasmon resonance signal)” value was “strongly binds”. Besides, the “binding ability of Compound A to human MIF with N-terminal proline replaced by serine (hMIF-P1S), compared with hMIF” value at hMIF-P1S is listed as “greatly attenuated”. Further, at His-hMIF, the “binding ability of Compound A to human MIF with 30 amino acid-polypeptide containing histidine tag added to the N terminus (His-hMIF), compared with hMIF” value is on record as “greatly attenuated”.

For `Cc1cccc2c(=O)nc(-c3cccc(C(=O)NCCCCCCN)n3)sc12` [Compound C, N-(6-aminohexyl)-6-(8-methyl-4-oxo-4H-1,3-benzothiazin-2-yl)pyridine-2 carboxamide], the “binding of the compound to rat MIF (changes in surface plasmon resonance signal)” value on rat MIF is reported as “weaker than that of Compound A”.
